Data: patent publication US20010028879A1, “Inhibition of graft versus host disease” (priority 1998, published 2001)
Like-named read-outs stand apart in the source and are kept apart here.

Test system: Peripheral human blood mononuclear cells PBMCs
Settings: for Cytokine Profile: after 7 days
Method: Peripheral human blood mononuclear cells PBMCs, which is a collection of white blood cells comprising about 40% T-cells, were stressed by contact with aqueous solutions of hydrogen peroxide, of various concentrations, for 20 minutes. Their immediate survival was measured, along with their immediate phytohaemagglutinin (PHA) response. Then their survival after 24 hours was measured, followed by their PHA response (tritiated thymidine uptake following mitogenic stimulation with PHA) and cytokine profile after 7 days.

## OO [Example H2O2, hydrogen peroxide]
100 μmole/L H2O2, 20 minutes
  24 hr survival %: 100%
  Immediate PHA response: 2000
  Immediate survival %: 80-90%
  Cytokine Profile: IFN↓
300 μmole/L H2O2, 20 minutes
  24 hr survival %: 50%
  Immediate PHA response: 2000
  Immediate survival %: 80-90%
  Cytokine Profile: IFN↓
1 mmole/L H2O2, 20 minutes
  24 hr survival %: 40%
  Immediate PHA response: 400
  Immediate survival %: 80-90%
  Cytokine Profile: IFN↓
3 mmole/L H2O2, 20 minutes
  24 hr survival %: 40%
  Immediate PHA response: 400
  Immediate survival %: 80-90%
  Cytokine Profile: IFN↓
